Key:
[1] = molecular target: T1, human clotting factor VIIa (Homo sapiens, UniProt P08709); assay: Inhibitory activity against clotting factor VIIa (chromogenic substrate Spectrozyme FVIIa, with tissue factor); format: biochemical; details: 10 nmol/L TF, 5 nmol/L Factor VIIa, room temperature 40 minutes, 405 nm
T1 construct: a human clotting factor VIIa (Factor VIIa) purified sample; purchased Enzyme Research Laboratories (Factor VIIa); Calbiochem (tissue factor) HFVIIa (Factor VIIa); 612151 (tissue factor)
Experimental: Dimethylsulfoxide (DMSO) solutions were prepared with compounds of the invention at concentration of 10 mmol/L (10 mmol/L compound solutions).
One packet of tris-hydroxymethylaminomethane-preset (Tris Preset) (product of SIGMA Corp., Catalog No. T8293), 8.8 g of sodium chloride (NaCl) and 1 g of bovine serum albumin (BSA) were dissolved in 1 L of water to prepare a Tris-BSA buffer (100 mmol/L Tris, 0.15 mol/L NaCl, 0.1% BSA, pH 7.4).
The Tris-BSA buffer (180 μL) was added to the aforementioned 10 mmol/L compound solution (20 μL). A 10-fold dilution series was prepared for this mixture using the aforementioned Tris-BSA buffer, and solutions with the compound at concentrations of 1.0 mmol/L, 100, 10, 1, 0.1, 0.01 and 0.001 μmol/L were prepared (1.0 mmol-0.001 μmol/L compound solutions).
As a control, a solution was prepared by 10-fold dilution of DMSO with the Tris-BSA buffer (control 10% solution).
After dissolving one packet of Tris preset, NaCl (8.8 g) and BSA (1 g) in water (about 900 mL), there were added 1 mol/L aqueous calcium chloride (CaCl2) (15 mL) and 1 mg/mL aqueous cephalin (30 mL), and the total volume was brought to 1 L by adding water. To this solution was added a human tissue factor (TF) sample (product of Calbiochem, Catalog No. 612151) (450 μg) to a TF sample concentration of 10 nmol/L, and then a human clotting factor VIIa (Factor VIIa) purified sample (product of Enzyme Research Laboratories, Catalog No. HFVIIa) (250 μg) was added to a Factor VIIa purified sample concentration of 5 nmol/L, to prepare an enzyme solution (100 mmol/L Tris-HCl, 0.15 mol/L NaCl, 15 mmol/L CaCl2, 30 μg/mL cephalin, 1 mg/mL BSA, 10 nmol/L TF, 5 nmol/L Factor VIIa).
To 110 μL of this enzyme solution was added 15 μL of each of the 1.0 mmol-0.001 μmol/L compound solutions, and then 25 μL of a 1.0 mmol/L synthetic chromogenic substrate solution (Spectrozyme FVIIa) was added and the mixture was allowed to stand at room temperature for 40 minutes. Next, the amount of 4-nitroanilide released into the solution was quantitated by spectrophotometry (405 nm).
A control measurement was conducted in the same manner, using the control 10% solution instead of the compound solution.
This measurement yielded the enzyme reaction inhibition in the presence of 100 μmol/L to 0.1 nmol/L of each compound of the invention. The enzyme reaction inhibition at each compound concentration was subjected to non-linear regression analysis, and the IC50 value for inhibitory activity of each compound against clotting factor VIIa was calculated.

healthy human plasma = assay: Blood clotting time prolongation (prothrombin time, steel ball method); details: human thromboplastin, 37° C.

T1 sequence (P08709 213-466 limits assumed): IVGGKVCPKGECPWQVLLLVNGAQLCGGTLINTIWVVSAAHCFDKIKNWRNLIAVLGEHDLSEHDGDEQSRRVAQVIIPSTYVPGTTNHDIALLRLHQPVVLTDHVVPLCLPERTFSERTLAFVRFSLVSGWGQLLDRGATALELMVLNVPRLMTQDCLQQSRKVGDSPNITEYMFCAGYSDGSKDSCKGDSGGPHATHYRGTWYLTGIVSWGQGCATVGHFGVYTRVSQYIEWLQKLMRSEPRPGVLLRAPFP
T1 sequence (P08709 61-212 limits assumed): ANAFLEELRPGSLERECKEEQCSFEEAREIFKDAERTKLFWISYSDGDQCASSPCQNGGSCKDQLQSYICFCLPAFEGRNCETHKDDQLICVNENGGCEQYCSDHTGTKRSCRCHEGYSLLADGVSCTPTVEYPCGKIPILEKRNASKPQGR
T1 sequence (P13726 33-295 partner): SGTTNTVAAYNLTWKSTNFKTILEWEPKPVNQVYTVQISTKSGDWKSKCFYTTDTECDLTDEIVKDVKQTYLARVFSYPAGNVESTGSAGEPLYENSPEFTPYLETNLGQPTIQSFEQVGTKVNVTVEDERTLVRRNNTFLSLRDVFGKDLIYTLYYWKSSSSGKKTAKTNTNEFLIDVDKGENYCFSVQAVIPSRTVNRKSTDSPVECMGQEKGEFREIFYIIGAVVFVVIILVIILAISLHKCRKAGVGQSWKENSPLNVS

For CCOc1cc(C(Nc2ccc(C(=N)N)cc2)C(=O)NNC(=O)c2ccncc2F)ccc1OC(C)CN(C)C.O=C(O)C(F)(F)F (stereo not drawn) [Example X-254, 4-(1-(4-(2-Dimethylamino-1-methylethoxy)-3-ethoxyphenyl)-2-(N′-(3-fluoropyridine-4-carbonyl)hydrazino)-2-oxoethylamino)benzamidine trifluoroacetate], the IC50 [1] was 0.05 µM and the “h PT × 1.1: compound concentration which produced 10% prolongation compared to the control clotting time” value (healthy human plasma) was 0.59 µM.

CCOc1cc(C(Nc2ccc(C(=N)N)cc2)C(=O)NNC(=O)c2ccncc2Br)ccc1OC(C)C.O=C(O)C(F)(F)F (stereo not drawn) [Example 34, 4-(2-(N′-(3-Bromopyridine-4-carbonyl)hydrazino)-1-(3-ethoxy-4-isopropoxyphenyl)-2-oxoethylamino)benzamidine trifluoroacetate] was tested, and the IC50 [1] was 0.063 µM and the “h PT × 1.1: compound concentration which produced 10% prolongation compared to the control clotting time” value (healthy human plasma) was 1.40 µM.

For CCOc1cc(C(Nc2ccc(C(=N)N)cc2)C(=O)NNc2ccccn2)ccc1OC(C)C.O=C(O)C(F)(F)F (stereo not drawn) [Example 2, 4-(((3-Ethoxy-4-isopropoxyphenyl)-(N′-pyridin-2-ylhydrazinocarbonyl)methyl)amino)benzamidine trifluoroacetate], the IC50 [1] was 0.096 µM and the “h PT × 1.1: compound concentration which produced 10% prolongation compared to the control clotting time” value (healthy human plasma) was 1.00 µM.

CCOc1cc(C(Nc2ccc(C(=N)N)cc2)C(=O)NNS(=O)(=O)c2ccc(NC(C)=O)cc2)ccc1OC(C)C.O=C(O)C(F)(F)F (stereo not drawn) [Example 9, N-(4-(2-(2-(4-Carbamimidoylphenylamino)-2-(3-ethoxy-4-isopropoxyphenyl)acetyl)hydrazinosulfonyl)phenyl)acetamide trifluoroacetate] was tested, and the IC50 [1] was 0.316 µM and the “h PT × 1.1: compound concentration which produced 10% prolongation compared to the control clotting time” value (healthy human plasma) was 1.30 µM.

For CCOc1cc(C(Nc2ccc(C(=N)N)cc2)C(=O)NNC(=O)c2ccncc2F)ccc1OCCN(C)C.O=C(O)C(F)(F)F (stereo not drawn) [Example 53, 4-(1-(4-(2-Dimethylaminoethoxy)-3-ethoxyphenyl)-2-oxo-2-(N′-(3-fluoropyridine-4-carbonyl)hydrazino)ethylamino)benzamidine trifluoroacetate], the IC50 [1] was 0.164 µM and the “h PT × 1.1: compound concentration which produced 10% prolongation compared to the control clotting time” value (healthy human plasma) was 0.65 µM.

With CCOc1cc(C(Nc2ccc(C(=N)N)cc2)C(=O)NNC(=O)c2cnccc2C)ccc1OC(C)C.O=C(O)C(F)(F)F (stereo not drawn) [Example 27, 4-(1-(3-Ethoxy-4-isopropoxyphenyl)-2-(N′-(4-methylpyridine-3-carbonyl)hydrazino)-2-oxoethylamino)benzamidine trifluoroacetate] the IC50 [1] was 0.069 µM and the “h PT × 1.1: compound concentration which produced 10% prolongation compared to the control clotting time” value (healthy human plasma) was 0.74 µM.
